According to patent US6727245B2, “Heterobicyclic derivatives” (Fujisawa Pharmaceutical Co., Ltd., priority 1994, dated 2004):

Columns and labels:
[1] = test system: TNF-α Production in Human Mononuclear Cells; assay: Inhibition on TNF-α Production in Human Mononuclear Cells; format: cell-based; conditions: MNC from healthy volunteers, 1 μg/ml LPS (E. coli), 37° C. for 16 hours, TNF-α in supernatant by ELISA
Method: (b) Inhibition on TNF-α Production in Human Mononuclear Cells
Blood was drawn from healthy volunteers with heparin. The mononuclear cell (MNC) fraction was obtained by gradient centrifugation (1800 rpm, 15 minutes), diluted with the same volume of RPMI-1640 culture medium, over Ficoll-Paque (Pharmacia LKB Biotechnology). MNC were washed twice with RPMI-1640. Then, MNC were resuspended in RPMI-1640 culture medium supplemented with 2 mM L-glutamine and 1% fetal bovine serum. MNC were incubated at 37° C. for 16 hours in 96-well micro culture plate at a concentration of […] with or without 1 μg/ml lipopolysaccharide (LPS) (from E. coli) and various amounts of test compound. At the end of incubation, the supernatant was obtained and its TNF-α active was measured by enzyme-linked immunosorbent assay (ELISA). ELISA was performed with TNF-α ELISA kit (Otsuka Pharmaceutical Co., Ltd.).

[2] = molecular target: U937 Phosphodiesterase IV (PDE IV); assay: Inhibition of U937 Phosphodiesterase IV (PDE IV); format: biochemical; conditions: PDE IV enzyme preparation from U937 cell homogenate; [3H]-cAMP substrate; CI-930 (PDE III inhibitor) final 10 μM; 30° C.
Method: (a) Inhibition of U937 Phosphodiesterase IV (PDE IV)
Harvested U937 was freezed in −80° C. and throwed to destroy the cell body. The pellet of destroyed cell was washed by Phosphate-buffered saline (PBS).
The washed cell pellet was homogenized with Dounce homogenizer (20 strokes) in homogenizing buffer (0.5% deoxycholate [DOC], 5 mM 2-mercaptoethanol, 1 μM leupeptin, 100 μM PMSF, 20 μM p-tosyl-L-lysine-chloromethyl ketone [TLCK] in PBS). The homogenate was centrifuged at 100,000 g×90 minutes (4° C.) and the supernatant containing PDE IV activity was dialyzed against dialysis buffer, which was the same component as homogenizing buffer without DOC. The dialyzed supernatant of homogenate was stored in freezer (−80° C.) as PDE IV enzyme preparation.
Enzyme preparation was diluted in assay buffer (10 mM Tris-HCl, 5 mM MgCl, 1 mM 2-Mercaptoethanol [pH 8.0]). In advance the rate of dilution was choosen every new lot of homogenizing preparation. […]
The reaction tube was preincubated in a water bath (30° C.) for 5 minutes, then 100 μl [^3H]-cAMP (37.0 MBq/ml [^3H]-cAMP: 4 μM cold cAMP=1:800) was added thereto. […] The mixture was centrifuged at 1000 rpm×5 minutes, and then 500 μl of the supernatant was added to 10 ml scintillation fluid in appropriate vial, vortexed, and counted for [^3H].
The inhibitory activity was calculated according to the following equation: [formula]

## O=C(Nc1cccc(-n2c(=O)c(Cc3ccccc3)nc3cccnc32)c1)Nc1cccc2ccccc12 [Test compound (a), 4-[3-[3-(1-Naphthyl)ureido]phenyl]-2-benzyl-3-oxo-3,4-dihydropyrido[2,3-b]pyrazine]
[1]
  IC50: 56 nM
[2]
  IC50: 31 nM
